Experimental data as given in patent publication US9914736B2, “TrKA kinase inhibitors, compositions and methods thereof” (Merck Sharp & Dohme Corp., priority 2014, dated 2018).

Target: human TrkA receptor (Homo sapiens (Human), UniProt P04629)
Assay: DiscoverX PathHunter TrkA functional assay
Format: cell-based
Conditions: U2OS cells expressing human TrkA-ProLink, Shc1-EA and p75NTR; compound 1 h, then NGF at ~80% of maximal response for 3 h; luminescence
Description: TrkA functional activity was measured using a DiscoverX PathHunter assay. In this assay, U2OS cells express the human TrkA receptor as a fusion with the weakly complementing fragment of B-galactosidase, which DiscoverX calls “Prolink (PK)”; additionally, Shc1 is fused with a larger fragment, which is called “Enzyme Acceptor (EA)”. Activation of the TrkA receptor, upon NGF addition, results in the kinase domain being phosphorylated, resulting in subsequent recruitment of Shc1-EA protein. That recruitment results in an active B-galactosidase enzyme that is detected by addition of a chemiluminescent substrate. The human p75^NTR protein was also expressed as a co-receptor for NGF.
All reagents were purchased from DiscoverX, except for the receptor agonists (NGF, BDNF, NT3) which were purchased from Peprotech. Cells were expanded and frozen into cryovials, and stored in the vapor phase of liquid nitrogen, and thawed immediately before use. Thawed cells were added to a 384-well plate at 7500 cells/well, and allowed to incubate overnight. Compound at various concentrations was added the following morning and allowed to incubate on cells for 1 h. Then, NGF was added at a concentration sufficient to elicit ˜80% of a maximal response and allowed to incubate for 3 h at ambient temperature. DiscoverX PathHunter detection reagent was then added and the plate was further incubated for 1 h in the dark. The plate was then read via luminescence on the Perkin Elmer Envision.

Chain of human TrkA receptor (P04629 33-796): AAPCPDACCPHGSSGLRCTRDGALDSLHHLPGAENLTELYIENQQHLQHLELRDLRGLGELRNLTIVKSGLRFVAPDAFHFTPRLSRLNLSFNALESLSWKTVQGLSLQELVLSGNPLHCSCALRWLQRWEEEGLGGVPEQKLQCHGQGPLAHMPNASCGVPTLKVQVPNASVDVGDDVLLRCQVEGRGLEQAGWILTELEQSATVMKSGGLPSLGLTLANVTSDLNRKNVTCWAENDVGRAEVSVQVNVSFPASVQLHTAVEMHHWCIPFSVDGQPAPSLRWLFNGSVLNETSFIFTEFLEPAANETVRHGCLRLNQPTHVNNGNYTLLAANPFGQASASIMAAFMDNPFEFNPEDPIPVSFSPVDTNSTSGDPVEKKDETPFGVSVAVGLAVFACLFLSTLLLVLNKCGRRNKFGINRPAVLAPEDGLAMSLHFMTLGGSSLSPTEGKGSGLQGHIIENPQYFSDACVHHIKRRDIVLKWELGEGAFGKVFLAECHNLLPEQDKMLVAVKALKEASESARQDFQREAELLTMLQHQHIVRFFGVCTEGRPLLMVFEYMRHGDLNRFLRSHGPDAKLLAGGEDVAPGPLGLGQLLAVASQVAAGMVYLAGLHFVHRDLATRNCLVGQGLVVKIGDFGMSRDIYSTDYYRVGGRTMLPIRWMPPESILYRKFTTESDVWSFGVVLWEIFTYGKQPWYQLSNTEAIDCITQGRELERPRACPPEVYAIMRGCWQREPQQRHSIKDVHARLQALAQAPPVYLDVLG

SMILES | IC50 [nM]
Cc1nc(-c2ccccc2)c(NC(=O)c2ccc(C(F)(F)F)c(-c3ccn(C)n3)c2)s1 [Compound 32, N-(2-methyl-4-phenyl-1,3-thiazol-5-yl)-3-(1-methyl-1H-pyrazol-3-yl)-4-(trifluoromethyl)benzamide] | 6
Cc1csc(-c2cc(C(=O)Nc3cc(-c4ccncc4)nn3-c3ccccc3)ccc2Cl)n1 [Compound 21, 4-chloro-3-(4-methyl-1,3-thiazol-2-yl)-N-(1-phenyl-3-pyridin-4-yl-1H-pyrazol-5-yl)benzamide] | 2.7
Cc1cc(-n2nc(-c3ccc(=O)[nH]n3)cc2NC(=O)c2ccc(C(F)(F)F)c(-c3ncccn3)c2)n[nH]1 [Compound 57, N-[5′-methyl-3-(6-oxo-1,6-dihydropyridazin-3-yl)-1′H-1,3′-bipyrazol-5-yl]-3-pyrimidin-2-yl-4-(trifluoromethyl)benzamide] | 78
O=C(Nc1cc(-c2ccncc2)nn1-c1ccc(F)cc1)c1ccc(C(F)(F)F)c(-c2ncns2)c1 [Compound 26, N-[1-(4-fluorophenyl)-3-pyridin-4-yl-1H-pyrazol-5-yl]-3-(1,2,4-thiadiazol-5-yl)-4-(trifluoromethyl)benzamide] | 350
Cn1ccc(-c2cc(C(=O)Nc3cc(Cc4nnn(C)n4)nn3-c3ccc(F)cc3)c(F)cc2C(F)(F)F)n1 [Compound 85, 2-fluoro-N-(1-(4-fluorophenyl)-3-((2-methyl-2H-tetrazol-5-yl)methyl)-1H-pyrazol-5-yl)-5-(1-methyl-1H-pyrazol-3-yl)-4-(trifluoromethyl)benzamide] | 1.2
O=C(Nc1cc(-c2ccc(CCO)cc2)nn1-c1ccc(F)cc1)c1cc(-c2ncccn2)c(C(F)(F)F)cc1F [Compound 101, 2-fluoro-N-(1-(4-fluorophenyl)-3-(4-(2-hydroxyethyl)phenyl)-1H pyrazol-5-yl)-5-(pyrimidin-2-yl)-4-(trifluoromethyl)benzamide] | 3.4
Cn1ccc(-c2cc(C(=O)Nc3cn[nH]c3-c3ccccc3)c(Cl)cc2C(F)(F)F)n1 [Compound 49, 2-chloro-5-(1-methyl-1H-pyrazol-3-yl)-N-(5-phenyl-1H-pyrazol-4-yl)-4-(trifluoromethyl)benzamide] | 5.8
O=C(Nc1cc(Cc2n[nH]c(=O)s2)nn1-c1ccc(F)cc1)c1cc(-c2ncccn2)c(C(F)(F)F)cc1F [Compound 89, 2-fluoro-N-(1-(4-fluorophenyl)-3-((5-oxo-4,5-dihydro-1,3,4-thiadiazol-2-yl)methyl)-1H-pyrazol-5-yl)-5-(pyrimidin-2-yl)-4-(trifluoromethyl)benzamide] | 4.8
Cc1cc(-n2nc(C(=O)NCc3cncnc3)cc2NC(=O)c2ccc(C(F)(F)F)c(-c3ccn(C)n3)c2)[nH]n1 [Compound 83, 5′-methyl-5-(3-(1-methyl-1H-pyrazol-3-yl)-4-(trifluoromethyl)benzamido)-N-(pyrimidin-5-ylmethyl)-2′H-[1,3′-bipyrazole]-3-carboxamide] | 1.6
Cn1ccc(-c2cc(C(=O)Nc3cc(-c4ccncc4)nn3-c3ccccc3)c(Cl)cc2C(F)(F)F)n1 [Compound 36, 2-chloro-5-(1-methyl-1H-pyrazol-3-yl)-N-(1-phenyl-3-pyridin-4-yl-1H-pyrazol-5-yl)-4-(trifluoromethyl)benzamide] | 0.37
Cn1ccc(-c2cc(C(=O)Nc3c(-c4ccccc4)nc(C(N)=O)n3C)ccc2C(F)(F)F)n1 [Compound 50, 1-methyl-5-({[3-(1-methyl-1H-pyrazol-3-yl)-4-(trifluoromethyl)phenyl]carbonyl}amino)-4-phenyl-1H-imidazole-2-carboxamide] | 5.7
Cn1ccc(-c2cc(C(=O)Nc3cc(Cc4cnc(N)cn4)nn3-c3ccc(F)cc3)ccc2C(F)(F)F)n1 [Compound 94, N-(3-((5-aminopyrazin-2-yl)methyl)-1-(4-fluorophenyl)-1H-pyrazol-5-yl)-3-(1-methyl-1H-pyrazol-3-yl)-4-(trifluoromethyl)benzamide] | 1.7
Cc1cc(-n2nc(CO)cc2NC(=O)c2ccc(C(F)(F)F)c(-c3ccn(C)n3)c2)[nH]n1 [Compound 51] | 2.9
Cc1cc(-c2nn(C)cc2NC(=O)c2ccc(C(F)(F)F)c(-c3ccn(C)n3)c2)[nH]n1 [Compound 74, N-(1,5′-dimethyl-1H,2′H-3,3′-bipyrazol-4-yl)-3-(1-methyl-1H-pyrazol-3-yl)-4-(trifluoromethyl)benzamide] | 180
Cn1ccc(-c2cc(C(=O)Nc3cc(Cc4ccc[nH]c4=O)nn3-c3ccc(F)cc3)ccc2C(F)(F)F)n1 [Compound 98, N-(1-(4-fluorophenyl)-3-((2-oxo-1,2-dihydropyridin-3-yl)methyl)-1H-pyrazol-5-yl)-3-(1-methyl-1H-pyrazol-3-yl)-4-(trifluoromethyl)benzamide] | 3.8
O=C(Nc1cn[nH]c1-c1ccccc1)c1cc(-c2cc[nH]n2)c(C(F)(F)F)cc1F [Compound 62, 2-fluoro-N-(5-phenyl-1H-pyrazol-4-yl)-5-(1H-pyrazol-3-yl)-4-(trifluoromethyl)benzamide] | 85

SMILES | IC50 [nM]
Cc1coc(-c2cc(C(=O)Nc3cc(-c4cn[nH]c4)nn3-c3cc(C)[nH]n3)ccc2C(F)(F)F)n1 [Compound 61, 3-(4-methyl-1,3-oxazol-2-yl)-N-(5-methyl-1H,1″H-3,1′:3′,4″-terpyrazol-5′-yl)-4-(trifluoromethyl)benzamide] | 3.1
Cn1ccc(-c2cc(C(=O)Nc3cnoc3-c3ccccc3)ccc2C(F)(F)F)n1 [Compound 37, 3-(1-methyl-1H-pyrazol-3-yl)-N-(5-phenylisoxazol-4-yl)-4-(trifluoromethyl)benzamide] | 180
Cn1ccc(-c2cc(C(=O)Nc3cc(Cc4cc[nH]n4)nn3-c3ccc(F)cc3)ccc2C(F)(F)F)n1 [Compound 96, N-(3-((1H-pyrazol-3-yl)methyl)-1-(4-fluorophenyl)-1H-pyrazol-5-yl)-3-(1-methyl-1H-pyrazol-3-yl)-4-(trifluoromethyl)benzamide] | 3.7
NC(=O)c1ccc(-c2cc(NC(=O)c3ccc(C(F)(F)F)cc3Cl)n(-c3ccccc3)n2)nc1 [Compound 4, 6-[5-({[2-chloro-4-(trifluoromethyl)phenyl]carbonyl}amino)-1-phenyl-1H-pyrazol-3-yl]pyridine-3-carboxamide] | 48
Cn1ccc(-c2cc(C(=O)Nc3cc(CN4C(=O)CNC4=O)nn3-c3ccc(F)cc3)c(F)cc2C(F)(F)F)n1 [Compound 112, N-(3-((2,5-dioxoimidazolidin-1-yl)methyl)-1-(4-fluorophenyl)-1H-pyrazol-5-yl)-2-fluoro-5-(1-methyl-1H-pyrazol-3-yl)-4-(trifluoromethyl)benzamide] | 1.9
Cc1nc(-c2ccccc2)c(NC(=O)c2ccc(C(F)(F)F)c(-c3ccn(C)n3)c2)[nH]1 [Compound 13, N-(2-methyl-4-phenyl-1H-imidazol-5-yl)-3-(1-methyl-1H-pyrazol-3-yl)-4-(trifluoromethyl)benzamide] | 38
Cn1ccc(-c2cc(C(=O)Nc3cc(-c4ccncc4)nn3-c3cc(C(F)(F)F)n[nH]3)ccc2Cl)n1 [Compound 40, 4-chloro-3-(1-methyl-1H-pyrazol-3-yl)-N-[3-pyridin-4-yl-5′-(trifluoromethyl)-2′H-1,3′-bipyrazol-5-yl]benzamide] | 3.2
CNC(=O)Cn1nnc(Cc2cc(NC(=O)c3ccc(C(F)(F)F)c(-c4ccn(C)n4)c3)n(-c3ccc(F)cc3)n2)n1 [Compound 78, N-[1-(4-fluorophenyl)-3-({2-[2-(methylamino)-2-oxoethyl]-2H-tetrazol-5-yl}methyl)-1H-pyrazol-5-yl]-3-(1-methyl-1H-pyrazol-3-yl)-4-(trifluoromethyl)benzamide] | 1.6
Cn1ccc(-c2cc(C(=O)Nc3cc(-c4ccccc4)nn3C)ccc2C(F)(F)F)n1 [Compound 20, N-(1-methyl-3-phenyl-1H-pyrazol-5-yl)-3-(1-methyl-1H-pyrazol-3-yl)-4-(trifluoromethyl)benzamide] | 1400
Cc1csc(-c2cc(C(=O)Nc3cc(C)nn3-c3ccccc3)ccc2C(F)(F)F)n1 [Compound 3, N-(3-methyl-1-phenyl-1H-pyrazol-5-yl)-3-(4-methyl-1,3-thiazol-2-yl)-4-(trifluoromethyl)benzamide] | 5.4
NC(=O)OCc1cc(NC(=O)c2cc(-c3ncccn3)c(C(F)(F)F)cc2F)n(-c2ccc(F)cc2)n1 [Compound 110, (5-(2-fluoro-5-(pyrimidin-2-yl)-4-(trifluoromethyl)benzamido)-1-(4-fluorophenyl)-1H-pyrazol-3-yl)methyl carbamate] | 7
O=C(Nc1cc(-c2ccncc2)nn1-c1ccccc1)c1cc(-c2cc[nH]n2)c(C(F)(F)F)cc1Cl [Compound 39, 2-chloro-N-(1-phenyl-3-pyridin-4-yl-1H-pyrazol-5-yl)-5-(1H-pyrazol-3-yl)-4-(trifluoromethyl)benzamide] | 2.9
Cn1ccc(-c2cc(C(=O)Nc3cc(-c4ccc(=O)[nH]n4)nn3-c3ccccc3)ccc2OC(F)(F)F)n1 [Compound 71, 3-(1-methyl-1H-pyrazol-3-yl)-N-[3-(6-oxo-1,6-dihydropyridazin-3-yl)-1-phenyl-1H-pyrazol-5-yl]-4-(trifluoromethoxy)benzamide] | 89
Cc1c(Cl)cc(C(=O)Nc2cc(-c3ccncc3)nn2-c2ccccc2)cc1Cl [Compound 23, 3,5-dichloro-4-methyl-N-(1-phenyl-3-pyridin-4-yl-1H-pyrazol-5-yl)benzamide] | 670
Cn1ccc(-c2cc(C(=O)Nc3cn(C)nc3-c3ccccc3)ccc2C(F)(F)F)n1 [Compound 43, N-(1-methyl-3-phenyl-1H-pyrazol-4-yl)-3-(1-methyl-1H-pyrazol-3-yl)-4-(trifluoromethyl)benzamide] | 11
Cc1cc(-n2nc(C(=O)NC3CN(C)C3)cc2NC(=O)c2ccc(C(F)(F)F)c(-c3ccn(C)n3)c2)[nH]n1 [Compound 27, 5′-methyl-N-(1-methylazetidin-3-yl)-5-({[3-(1-methyl-1H-pyrazol-3-yl)-4-(trifluoromethyl)phenyl]carbonyl}amino)-2′H-1,3′-bipyrazole-3-carboxamide] | 10
